Results reported in PMC4972573 (Nature structural & molecular biology, 2013).

Target: GluK2 Y521C L783C (Rattus norvegicus, UniProt P42260, Y521C/L783C)
Test: outside-out patch single-channel and macroscopic currents
Type: cell-based

Sequence of GluK2 Y521C L783C (P42260 32-908 Y521C/L783C): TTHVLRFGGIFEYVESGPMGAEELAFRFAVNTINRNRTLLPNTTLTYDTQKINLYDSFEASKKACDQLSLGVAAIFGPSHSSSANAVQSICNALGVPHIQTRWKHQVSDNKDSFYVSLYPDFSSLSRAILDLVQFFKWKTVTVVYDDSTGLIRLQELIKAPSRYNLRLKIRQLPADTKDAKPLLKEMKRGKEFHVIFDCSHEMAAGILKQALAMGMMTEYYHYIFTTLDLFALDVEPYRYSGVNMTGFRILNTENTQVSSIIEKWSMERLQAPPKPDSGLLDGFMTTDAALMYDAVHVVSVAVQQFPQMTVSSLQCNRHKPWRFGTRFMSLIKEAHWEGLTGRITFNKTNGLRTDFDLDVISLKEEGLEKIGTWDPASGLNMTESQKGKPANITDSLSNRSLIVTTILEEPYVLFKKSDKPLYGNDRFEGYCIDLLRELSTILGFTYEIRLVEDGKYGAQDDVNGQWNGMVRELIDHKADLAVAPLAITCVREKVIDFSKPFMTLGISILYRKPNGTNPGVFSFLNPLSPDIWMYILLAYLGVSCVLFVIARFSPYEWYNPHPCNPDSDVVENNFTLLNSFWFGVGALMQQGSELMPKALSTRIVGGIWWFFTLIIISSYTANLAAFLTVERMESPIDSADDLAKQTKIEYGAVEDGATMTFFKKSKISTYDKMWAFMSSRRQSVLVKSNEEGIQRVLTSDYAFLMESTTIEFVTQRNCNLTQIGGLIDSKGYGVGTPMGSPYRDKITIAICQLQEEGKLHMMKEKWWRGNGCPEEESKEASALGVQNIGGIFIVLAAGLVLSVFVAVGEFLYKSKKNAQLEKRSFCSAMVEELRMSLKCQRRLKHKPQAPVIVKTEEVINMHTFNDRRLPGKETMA

SMILES: N[C@@H](CCC(=O)O)C(=O)O [L-Glu]
- outside-out patch single-channel and macroscopic currents: Unitary current events elicited by L-Glu acting on Y521C L783C channels
